Results taken from ChEMBL document CHEMBL4651402, “Screening of ~5500 FDA-approved drugs and clinical candidates for anti-SARS-CoV-2 activity” (2021).

Key:
in vitro = details: chlorocebus sabaeus
SARS-CoV-2 [1] = test: microbe, parasite or virus in culture; details: Severe acute respiratory syndrome coronavirus 2, Vero C1008, 48 h
SARS-CoV-2 [2] = test: microbe, parasite or virus in culture; type: functional, organism-based, Chlorocebus sabaeus, Vero C1008; details: Severe acute respiratory syndrome coronavirus 2, Vero C1008, 48 h
[3] = Vero E6 (Vero C1008) cells, CC50
[4] = Vero E6 (Vero C1008) cells, pCC50

CN1CCCN(C(c2ccccc2)c2ccc(Cl)cc2)CC1 (stereo unspecified) [HOMOCHLORCYCLIZINE]
CC50 at 48 h (in vitro; [3]): 21.1 µM | CC50 at 48 h (in vitro; [4]): 20.9 µM | IC50 (SARS-CoV-2 [1]): > 20 µM | IC50 (SARS-CoV-2 [1]; read-out: pIC50 (converted)): > 20 µM | IC50 (SARS-CoV-2 [2]; read-out: IC50): > 25.1 µM | IC50 (SARS-CoV-2 [2]; read-out: pIC50 (converted)): > 25.1 µM

OC(CCCN1CCc2c(c3cc(F)ccc3n2-c2ccc(F)cc2)C1)c1ccc(F)cc1 (stereo unspecified) [FLUTROLINE]
CC50 at 48 h (in vitro; [3]): 6.92 µM | CC50 at 48 h (in vitro; [4]): 6.92 µM | IC50 (SARS-CoV-2 [1]): 4.68 µM | IC50 (SARS-CoV-2 [1]; read-out: pIC50 (converted)): 4.68 µM | IC50 (SARS-CoV-2 [2]; read-out: IC50): > 100 µM | IC50 (SARS-CoV-2 [2]; read-out: pIC50 (converted)): > 100 µM

CC(Cc1ccc(O)c(O)c1)C(C)Cc1ccc(O)c(O)c1 (stereo unspecified) [NORDIHYDROGUAIARETIC ACID]
CC50 at 48 h (in vitro; [3]): 37.2 µM | CC50 at 48 h (in vitro; [4]): 37.2 µM | IC50 (SARS-CoV-2 [1]): > 100 µM | IC50 (SARS-CoV-2 [1]; read-out: pIC50 (converted)): > 100 µM | IC50 (SARS-CoV-2 [2]; read-out: IC50): > 100 µM | IC50 (SARS-CoV-2 [2]; read-out: pIC50 (converted)): > 100 µM

CNCC[C@@H](Oc1cccc2ccccc12)c1cccs1 [(R)-DULOXETINE]
CC50 at 48 h (in vitro; vero c1008, CC50): 16.2 µM | CC50 at 48 h (in vitro; vero c1008, pCC50): 16.2 µM | IC50 (SARS-CoV-2 [1]): 7.24 µM | IC50 (SARS-CoV-2 [1]; read-out: pIC50 (converted)): 7.24 µM | IC50 (SARS-CoV-2 [2]; read-out: IC50): > 100 µM | IC50 (SARS-CoV-2 [2]; read-out: pIC50 (converted)): > 100 µM

CN1CCN(CCCN2c3ccccc3Sc3ccc(C(F)(F)F)cc32)CC1 [TRIFLUOPERAZINE]
CC50 at 48 h (in vitro; [3]): 7.94 µM | CC50 at 48 h (in vitro; [4]): 7.94 µM | IC50 (SARS-CoV-2 [1]): 6.46 µM | IC50 (SARS-CoV-2 [1]; read-out: pIC50 (converted)): 6.46 µM | IC50 (SARS-CoV-2 [2]; read-out: IC50): > 100 µM | IC50 (SARS-CoV-2 [2]; read-out: pIC50 (converted)): > 100 µM

Cc1cc2cc(Oc3ccnc(Nc4cccc(CS(=O)(=O)NCCN(C)C)c4)n3)ccc2[nH]1 [SURUFATINIB]
CC50 at 48 h (in vitro; [3]): 4.9 µM | CC50 at 48 h (in vitro; [4]): 4.9 µM | IC50 (SARS-CoV-2 [1]): > 10 µM | IC50 (SARS-CoV-2 [1]; read-out: pIC50 (converted)): > 10 µM | IC50 (SARS-CoV-2 [2]; read-out: IC50): > 50.1 µM | IC50 (SARS-CoV-2 [2]; read-out: pIC50 (converted)): > 50.1 µM

CCN(CC)CCCC(C)Nc1ccnc2cc(Cl)ccc12 (stereo unspecified) [CHLOROQUINE]
CC50 at 48 h (in vitro; [3]): ~38.7 µM | CC50 at 48 h (in vitro; [4]): ~38.9 µM | IC50 (SARS-CoV-2 [1]): ~5.86 µM | IC50 (SARS-CoV-2 [1]; read-out: pIC50 (converted)): ~5.89 µM | IC50 (SARS-CoV-2 [2]; read-out: IC50): ~9.46 µM | IC50 (SARS-CoV-2 [2]; read-out: pIC50 (converted)): ~9.55 µM

CCN(CCO)CCC[C@@H](C)Nc1ccnc2cc(Cl)ccc12
CC50 at 48 h (in vitro; [3]): > 50.1 µM | CC50 at 48 h (in vitro; [4]): > 50.1 µM | IC50 (SARS-CoV-2 [1]): 12.7 µM | IC50 (SARS-CoV-2 [1]; read-out: pIC50 (converted)): 12.6 µM | IC50 (SARS-CoV-2 [2]; read-out: IC50): > 50.1 µM | IC50 (SARS-CoV-2 [2]; read-out: pIC50 (converted)): > 50.1 µM

CCCCCCC(C)(C)c1cc(O)c2c(c1)OC(C)(C)C1CCC(=O)CC21 (stereo unspecified) [NABILONE]
CC50 at 48 h (in vitro; [3]): 11.1 µM | CC50 at 48 h (in vitro; [4]): 11 µM | IC50 (SARS-CoV-2 [1]): 8.91 µM | IC50 (SARS-CoV-2 [1]; read-out: pIC50 (converted)): 8.91 µM | IC50 (SARS-CoV-2 [2]; read-out: IC50): > 25.1 µM | IC50 (SARS-CoV-2 [2]; read-out: pIC50 (converted)): > 25.1 µM

Cc1cccc(C)c1NC(=O)CN1CCN(CCCC(c2ccc(F)cc2)c2ccc(F)cc2)CC1 [LIDOFLAZINE]
CC50 at 48 h (in vitro; [3]): 8.41 µM | CC50 at 48 h (in vitro; [4]): 8.32 µM | IC50 (SARS-CoV-2 [1]): 9.55 µM | IC50 (SARS-CoV-2 [1]; read-out: pIC50 (converted)): 9.55 µM | IC50 (SARS-CoV-2 [2]; read-out: IC50): > 100 µM | IC50 (SARS-CoV-2 [2]; read-out: pIC50 (converted)): > 100 µM

O=C1NCN(c2ccccc2)C12CCN(CCCC(c1ccc(F)cc1)c1ccc(F)cc1)CC2
CC50 at 48 h (in vitro; [3]): 7 µM | CC50 at 48 h (in vitro; [4]): 6.92 µM | IC50 (SARS-CoV-2 [1]): > 100 µM | IC50 (SARS-CoV-2 [1]; read-out: pIC50 (converted)): > 100 µM | IC50 (SARS-CoV-2 [2]; read-out: IC50): > 100 µM | IC50 (SARS-CoV-2 [2]; read-out: pIC50 (converted)): > 100 µM

CC1(C)CCC(c2ccc(Cl)cc2)=C(CN2CCN(c3ccc(C(=O)NS(=O)(=O)c4ccc(N[C@H](CCN5CCOCC5)CSc5ccccc5)c(S(=O)(=O)C(F)(F)F)c4)cc3)CC2)C1 [NAVITOCLAX]
CC50 at 48 h (in vitro; [3]): 4.73 µM | CC50 at 48 h (in vitro; [4]): 4.68 µM | IC50 (SARS-CoV-2 [1]): > 100 µM | IC50 (SARS-CoV-2 [1]; read-out: pIC50 (converted)): > 100 µM | IC50 (SARS-CoV-2 [2]; read-out: IC50): > 100 µM | IC50 (SARS-CoV-2 [2]; read-out: pIC50 (converted)): > 100 µM

O=C(c1ccc(F)cc1)C1CCN(CCCn2c(=O)[nH]c3cc(Cl)ccc32)CC1 [MILENPERONE]
CC50 at 48 h (in vitro; [3]): 32.4 µM | CC50 at 48 h (in vitro; [4]): 32.4 µM | IC50 (SARS-CoV-2 [1]): > 100 µM | IC50 (SARS-CoV-2 [1]; read-out: pIC50 (converted)): > 100 µM | IC50 (SARS-CoV-2 [2]; read-out: IC50): > 100 µM | IC50 (SARS-CoV-2 [2]; read-out: pIC50 (converted)): > 100 µM

C[C@H](Oc1cc(-c2cnn(C3CCNCC3)c2)cnc1N)c1c(Cl)ccc(F)c1Cl
CC50 at 48 h (in vitro; [3]): 4.42 µM | CC50 at 48 h (in vitro; [4]): 4.37 µM | IC50 (SARS-CoV-2 [1]): 6.76 µM | IC50 (SARS-CoV-2 [1]; read-out: pIC50 (converted)): 6.76 µM | IC50 (SARS-CoV-2 [2]; read-out: IC50): ~4.47 µM | IC50 (SARS-CoV-2 [2]; read-out: pIC50 (converted)): ~4.47 µM

Cc1ccc(-c2nc3c(nc2-c2ccc(C)cc2)N(CCCCCCC(=O)O)CCC3)cc1
CC50 at 48 h (in vitro; [3]): 50.1 µM | CC50 at 48 h (in vitro; [4]): 50.1 µM | IC50 (SARS-CoV-2 [1]): 17.4 µM | IC50 (SARS-CoV-2 [1]; read-out: pIC50 (converted)): 17.4 µM | IC50 (SARS-CoV-2 [2]; read-out: IC50): ~16.6 µM | IC50 (SARS-CoV-2 [2]; read-out: pIC50 (converted)): ~16.6 µM

COc1cc2c(Oc3ccc4[nH]c(C)cc4c3F)ccnc2cc1OCC1(N)CC1 [CATEQUENTINIB]
CC50 at 48 h (in vitro; [3]): 5.25 µM | CC50 at 48 h (in vitro; [4]): 5.25 µM | IC50 (SARS-CoV-2 [1]): > 100 µM | IC50 (SARS-CoV-2 [1]; read-out: pIC50 (converted)): > 100 µM | IC50 (SARS-CoV-2 [2]; read-out: IC50): > 100 µM | IC50 (SARS-CoV-2 [2]; read-out: pIC50 (converted)): > 100 µM
